The target in experiment [1] is T1, human Siglec-2/CD22 protein (Homo sapiens, UniProt P20273).
T1 construct: purchased Acro Biosystems SI2-H82E3
T1 sequence (P20273 20-847): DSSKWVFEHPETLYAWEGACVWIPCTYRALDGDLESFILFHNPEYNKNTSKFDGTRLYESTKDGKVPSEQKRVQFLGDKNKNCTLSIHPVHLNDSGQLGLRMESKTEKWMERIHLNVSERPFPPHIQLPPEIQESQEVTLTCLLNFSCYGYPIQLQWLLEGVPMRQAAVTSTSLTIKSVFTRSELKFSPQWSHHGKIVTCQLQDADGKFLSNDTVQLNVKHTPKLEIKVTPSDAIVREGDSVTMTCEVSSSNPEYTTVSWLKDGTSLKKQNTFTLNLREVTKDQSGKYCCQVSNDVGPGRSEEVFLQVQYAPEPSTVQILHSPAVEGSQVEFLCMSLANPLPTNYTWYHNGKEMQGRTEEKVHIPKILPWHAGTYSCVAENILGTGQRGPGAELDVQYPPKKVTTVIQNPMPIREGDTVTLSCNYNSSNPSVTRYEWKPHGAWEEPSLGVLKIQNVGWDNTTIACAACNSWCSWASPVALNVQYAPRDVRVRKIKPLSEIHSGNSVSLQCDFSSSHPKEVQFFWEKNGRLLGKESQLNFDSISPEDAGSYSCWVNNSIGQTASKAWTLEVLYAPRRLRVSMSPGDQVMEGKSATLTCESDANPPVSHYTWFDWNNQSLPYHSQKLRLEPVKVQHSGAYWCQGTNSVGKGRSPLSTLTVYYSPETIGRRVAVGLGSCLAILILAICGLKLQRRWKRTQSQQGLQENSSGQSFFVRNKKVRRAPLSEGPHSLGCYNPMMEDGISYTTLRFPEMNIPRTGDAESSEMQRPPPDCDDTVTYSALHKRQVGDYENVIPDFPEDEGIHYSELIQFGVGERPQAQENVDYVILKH
Nature of the experiment: SPR binding affinity to human CD22. To be noted: steady-state analysis. In a few lines:
(§1)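 Biotinylated CD22 desialylated with SialoExo (4 h, 37° C) before capture on streptavidin chip. Running buffer 10 mM HEPES, 150 mM NaCl, 0.05% Tween-20, pH 7.5, 1% DMSO, with DMSO solvent correction; 120 s dissociation. Compound affinities from steady-state analysis.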

For experiment [2], the target named is T2, mouse Siglec-2-Fc-Avi (CD22) (Mus musculus, UniProt P35329).
T2 construct: made in house
T2 sequence (P35329 22-708 limits assumed): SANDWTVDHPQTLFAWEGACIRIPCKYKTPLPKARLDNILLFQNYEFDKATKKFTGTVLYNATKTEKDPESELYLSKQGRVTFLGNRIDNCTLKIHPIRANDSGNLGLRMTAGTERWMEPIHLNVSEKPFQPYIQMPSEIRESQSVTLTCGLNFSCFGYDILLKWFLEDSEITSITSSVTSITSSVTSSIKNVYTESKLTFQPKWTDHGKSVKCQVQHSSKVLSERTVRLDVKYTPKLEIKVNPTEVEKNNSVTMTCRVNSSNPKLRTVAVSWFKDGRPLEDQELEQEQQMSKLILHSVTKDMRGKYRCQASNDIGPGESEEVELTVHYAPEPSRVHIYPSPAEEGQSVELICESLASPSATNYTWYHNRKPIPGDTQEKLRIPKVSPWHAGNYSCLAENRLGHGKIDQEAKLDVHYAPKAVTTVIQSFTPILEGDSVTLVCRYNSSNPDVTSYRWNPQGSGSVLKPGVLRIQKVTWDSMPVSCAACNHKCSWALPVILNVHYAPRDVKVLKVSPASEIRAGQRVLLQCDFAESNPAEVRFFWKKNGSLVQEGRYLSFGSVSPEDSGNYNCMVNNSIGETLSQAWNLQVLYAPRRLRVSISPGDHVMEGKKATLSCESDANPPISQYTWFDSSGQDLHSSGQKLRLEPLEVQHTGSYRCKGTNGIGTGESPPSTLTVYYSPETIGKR
Nature of the experiment: SPR binding affinity to mouse CD22. As to conditions: steady-state analysis. An outline of the steps: as §1

The target in another experiment is cynomolgus Siglec-2/CD22 (Macaca fascicularis, UniProt A0A2K5WCZ6). Put plainly: biochemical. To be noted: SPR, steady-state analysis; read-out: Affinity cyno CD22. It counts as binding. In a few lines: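 SPR with desialylated (SialoExo, 4 h, 37° C.) cynomolgus CD22 amine-coupled to a CM5 chip. Running buffer 10 mM HEPES, 150 mM NaCl, 0.05% Tween-20, pH 7.5, 1% DMSO, with solvent correction; 120 s dissociation. Affinities from steady-state analysis.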
Chain of cynomolgus Siglec-2/CD22 (A0A2K5WCZ6 entry or part of it): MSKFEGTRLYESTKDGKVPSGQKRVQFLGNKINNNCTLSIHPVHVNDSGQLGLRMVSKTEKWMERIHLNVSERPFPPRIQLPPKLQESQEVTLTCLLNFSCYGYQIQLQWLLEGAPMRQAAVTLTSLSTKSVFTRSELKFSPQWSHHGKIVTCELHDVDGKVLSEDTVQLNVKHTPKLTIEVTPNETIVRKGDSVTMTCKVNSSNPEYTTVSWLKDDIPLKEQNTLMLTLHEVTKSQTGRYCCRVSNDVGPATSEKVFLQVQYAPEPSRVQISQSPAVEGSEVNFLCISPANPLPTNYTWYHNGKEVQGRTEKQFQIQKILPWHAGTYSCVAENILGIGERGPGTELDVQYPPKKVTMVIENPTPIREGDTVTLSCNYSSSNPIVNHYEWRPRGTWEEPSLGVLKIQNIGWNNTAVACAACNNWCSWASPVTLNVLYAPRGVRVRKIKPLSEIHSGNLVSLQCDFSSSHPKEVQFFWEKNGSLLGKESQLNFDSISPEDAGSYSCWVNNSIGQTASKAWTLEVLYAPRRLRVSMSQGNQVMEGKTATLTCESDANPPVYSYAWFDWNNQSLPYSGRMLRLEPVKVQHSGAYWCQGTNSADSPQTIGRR

Molecules are shown by their SMILES. pKd: −log10 of the molar value.

Here are results for eleven compounds from patent US20250064941A1, “SIGLEC LIGANDS, CONJUGATES, AND METHODS OF USE THEREOF” (Osprey Biopharmaceuticals, Inc., priority 2023, published 2025).

On to `C#CCOCCOCCNc1c(NCCCCCCO[C@]2(C(=O)O)C[C@H](O)[C@@H](NC(=O)CO)[C@H]([C@H](O)[C@H](O)CNC(=O)C(F)(F)c3ccccc3)O2)c(=O)c1=O` [Compound 275, (2R,4S,5R,6R)-6-((1R,2R)-3-(2,2-difluoro-2-phenylacetamido)-1,2-dihydroxypropyl)-2-((6-((3,4-dioxo-2-((2-(2-(prop-2-yn-1-yloxy)ethoxy)ethyl)amino)cyclobut-1-en-1-yl)amino)hexyl)oxy)-4-hydroxy-5-(2-hydroxyacetamido) tetrahydro-2H-pyran-2-carboxylic acid], for which the pKd in experiment [1] is more than 6.00; in experiment [2] it was 5.00 to 6.00; at cynomolgus Siglec-2/CD22 it was more than 6.00.
Take `C#CCOCCCCCCO[C@]1(C(=O)O)C[C@H](O)[C@@H](NC(N)=O)[C@H]([C@H](O)[C@H](O)CNC(=O)Cc2ccc(Cl)cc2)O1` [Cpd. 86, (2R,4S,5R,6R)-6-((1R,2R)-3-(2-(4-chlorophenyl)acetamido)-1,2-dihydroxypropyl)-4-hydroxy-2-((6-(prop-2-yn-1-yloxy)hexyl)oxy)-5-ureidotetrahydro-2H-pyran-2-carboxylic acid]: the pKd in experiment [1] was more than 6.00; in experiment [2], more than 6.00; at cynomolgus Siglec-2/CD22, 5.00 to 6.00.
As to `C#CCOCCCCCCO[C@]1(C(=O)O)C[C@H](O)[C@@H](NC(=O)CO)[C@H]([C@H](O)[C@H](O)CNC(=O)Cc2ccc(C(C)C)cc2)O1` [Cpd. 159, (2R,4S,5R,6R)-6-((1R,2R)-1,2-dihydroxy-3-(2-(4-isopropylphenyl)acetamido)propyl)-4-hydroxy-5-(2-hydroxyacetamido)-2-((6-(prop-2-yn-1-yloxy)hexyl)oxy)tetrahydro-2H-pyran-2-carboxylic acid], the pKd (in experiment [1]; in experiment [2]; on cynomolgus Siglec-2/CD22) was more than 6.00 throughout.
With `C#CCOCCNC(=O)CCCCCCO[C@]1(C(=O)O)C[C@H](O)[C@@H](NC(=O)CO)[C@H]([C@H](O)[C@H](O)CNC(=O)Cc2ccc(Cl)c(F)c2)O1` [Cpd. 214, (2R,4S,5R,6R)-6-((1R,2R)-3-(2-(4-chloro-3-fluorophenyl)acetamido)-1,2-dihydroxypropyl)-4-hydroxy-5-(2-hydroxyacetamido)-2-((7-oxo-7-((2-(prop-2-yn-1-yloxy)ethyl)amino)heptyl)oxy)tetrahydro-2H-pyran-2-carboxylic acid], the pKd (in experiment [1]; in experiment [2]; at cynomolgus Siglec-2/CD22) was more than 6.00 throughout.
For the compound `CC(=O)NCCOCCOCCOCCOCCC(=O)NCCCCCCO[C@]1(C(=O)O)C[C@H](O)[C@@H](NC(=O)CO)[C@H]([C@H](O)[C@H](O)CNC(=O)Cc2ccc(-c3nnn[nH]3)cc2)O1` [Cpd. 235, (2R,4S,5R,6R)-6-((1R,2R)-3-(2-(4-(1H-tetrazol-5-yl)phenyl)acetamido)-1,2-dihydroxypropyl)-2-((2,18-dioxo-6,9,12,15-tetraoxa-3,19-diazapentacosan-25-yl)oxy)-4-hydroxy-5-(2-hydroxyacetamido)tetrahydro-2H-pyran-2-carboxylic acid], the pKd (in experiment [1]; in experiment [2]; on cynomolgus Siglec-2/CD22) was more than 6.00 in each case.
For the compound `CC(=O)NCCOCCOCCOCCOCCC(=O)NCCCCCO[C@]1(C(=O)O)C[C@H](O)[C@@H](NC(=O)CO)[C@H]([C@H](O)[C@H](O)CNC(=O)Cc2ccc(Cl)cc2)O1` [Cpd. 241, (2R,4S,5R,6R)-6-((1R,2R)-3-(2-(4-chlorophenyl)acetamido)-1,2-dihydroxypropyl)-2-((2,18-dioxo-6,9,12,15-tetraoxa-3,19-diazatetracosan-24-yl)oxy)-4-hydroxy-5-(2-hydroxyacetamido) tetrahydro-2H-pyran-2-carboxylic acid], the pKd is more than 6.00 in experiment [1], 5.00 to 6.00 in experiment [2] and more than 6.00 at cynomolgus Siglec-2/CD22.
For `CC(=O)NCCOCCOCCOCCOCCNc1c(NCCOCCOCCO[C@]2(C(=O)O)C[C@H](O)[C@@H](NC(=O)CO)[C@H]([C@H](O)[C@H](O)CNC(=O)Cc3ccc(-c4ccccc4)cc3)O2)c(=O)c1=O` [Cpd. 242, (2R,4S,5R,6R)-6-((1R,2R)-3-(2-([1,1′-biphenyl]-4-yl)acetamido)-1,2-dihydroxypropyl)-2-(2-(2-(2-((3,4-dioxo-2-((2-oxo-6,9,12,15-tetraoxa-3-azaheptadecan-17-yl)amino)cyclobut-1-en-1-yl)amino)ethoxy)ethoxy)ethoxy)-4-hydroxy-5-(2-hydroxyacetamido)tetrahydro-2H-pyran-2-carboxylic acid], the pKd (in experiment [1]; in experiment [2]; on cynomolgus Siglec-2/CD22) was 5.00 to 6.00 in each case.
Turning to `CC(=O)NCCOCCOCCOCCOCc1cn(CCOCCOCCO[C@]2(C(=O)O)C[C@H](O)[C@@H](NC(=O)CO)[C@H]([C@H](O)[C@H](O)CNC(=O)Cc3ccc(-c4ccccc4)cc3)O2)nn1` [Cpd. 243, (2R,4S,5R,6R)-6-((1R,2R)-3-(2-([1,1′-biphenyl]-4-yl)acetamido)-1,2-dihydroxypropyl)-4-hydroxy-5-(2-hydroxyacetamido)-2-(2-(2-(2-(4-(15-oxo-2,5,8,11-tetraoxa-14-azahexadecyl)-1H-1,2,3-triazol-1-yl)ethoxy)ethoxy)ethoxy) tetrahydro-2H-pyran-2-carboxylic acid], the pKd (in experiment [1]; in experiment [2]; on cynomolgus Siglec-2/CD22) was 5.00 to 6.00 each time.
Take `CC(=O)NCCOCCOCCOCCOCCC(=O)NCCCCCCO[C@]1(C(=O)O)C[C@H](O)[C@@H](NC(=O)CO)[C@H]([C@H](O)[C@H](O)CNC(=O)Cc2ccc(Cl)cc2)O1` [Cpd. 244, (2R,4S,5R,6R)-6-((1R,2R)-3-(2-(4-chlorophenyl)acetamido)-1,2-dihydroxypropyl)-2-((2,18-dioxo-6,9,12,15-tetraoxa-3,19-diazapentacosan-25-yl)oxy)-4-hydroxy-5-(2-hydroxyacetamido) tetrahydro-2H-pyran-2-carboxylic acid]: the pKd (in experiment [1]; in experiment [2]; at cynomolgus Siglec-2/CD22) was more than 6.00 throughout.
With `CC(=O)NCCOCCOCCOCCOCc1cn(CCCCCCO[C@]2(C(=O)O)C[C@H](O)[C@@H](NC(=O)CO)[C@H]([C@H](O)[C@H](O)CNC(=O)Cc3ccc(Cl)cc3)O2)nn1` [Cpd. 246, (2R,4S,5R,6R)-6-((1R,2R)-3-(2-(4-chlorophenyl)acetamido)-1,2-dihydroxypropyl)-4-hydroxy-5-(2-hydroxyacetamido)-2-((6-(4-(15-oxo-2,5,8,11-tetraoxa-14-azahexadecyl)-1H-1,2,3-triazol-1-yl)hexyl)oxy) tetrahydro-2H-pyran-2-carboxylic acid], the pKd (in experiment [1]; in experiment [2]; on cynomolgus Siglec-2/CD22) was more than 6.00 each time.
`CC(=O)NCCOCCOCCOCCOCCNc1c(NCCOCCOCCO[C@]2(C(=O)O)C[C@H](O)[C@@H](NC(=O)CO)[C@H]([C@H](O)[C@H](O)CNC(=O)Cc3ccc(Cl)cc3)O2)c(=O)c1=O` [Cpd. 247, (2R,4S,5R,6R)-6-((1R,2R)-3-(2-(4-chlorophenyl)acetamido)-1,2-dihydroxypropyl)-2-(2-(2-(2-((3,4-dioxo-2-((2-oxo-6,9,12,15-tetraoxa-3-azaheptadecan-17-yl)amino)cyclobut-1-en-1-yl)amino)ethoxy)ethoxy)ethoxy)-4-hydroxy-5-(2-hydroxyacetamido) tetrahydro-2H-pyran-2-carboxylic acid]: the pKd (in experiment [1]; in experiment [2]; on cynomolgus Siglec-2/CD22) was 5.00 to 6.00 in each case.
